Measured values reported in US6531613B1 (3M Innovative Properties Company, priority 2001, dated 2003).

Tests used:
[1] = assay type: physicochemical; settings: for Dye Concentration in Acetone at RT: 72 h
Experimental: Examples 3-4 and Comparative Example A were prepared by placing 60-100 mg of each of the compounds of Examples 1-2 and 6-methoxy-14H-anthra(2,1,9-mna)thioxanthene-14-one (described by […] et al.) in a vial with 5.0 ml acetone. […] Each vial was hand shaken and the solution was filtered using a 0.45 micron polytetrafluoroethylene (PTFE) filter commercially available from VWR Scientific Products, West Chester, Pa. under the trade designation “Acrodisc 13CR PTFE”. The amount of fluorescent dye in the saturated acetone solution was determined by measuring the major dye absorption band at 535 nm using a UV-Vis Spectrophotometer commercially available from Shimadzu Scientific Instruments, Inc., Columbia, Md. under the trade designation “Shimadzu model UV-2401PC”. Dye concentrations were calculated by measuring the absorbance of the saturated acetone solution, and then diluting that solution until absorbance of the resulting solution was below 3. The dyes were assumed to have equal absorbance per mole. Using the dilution and an absorbance coefficient of 16,100 A/mol/L (coefficient obtained in acetone for the dye of Example 2) and assuming a Beer's Law relationship, the concentration of dye in each saturated solution was calculated and is set out in TABLE I.

| SMILES | Dye Concentration in Acetone at RT [1] | melting point | solubility in acetone relative to Comparative Example A [1] |
| --- | --- | --- | --- |
| COc1cc2c3ccccc3c(=O)c3ccc4c5ccccc5sc1c4c32 [A, 6-methoxy-14H-anthra(2,1,9-mna)thioxanthene-14-one, reference compound] | 0.06 mg/mL | – | – |
| CCCCC(CC)COc1cc2c3ccccc3c(=O)c3ccc4c5ccccc5sc1c4c32 (stereo not drawn) [Example 1, 6-[(2-Ethylhexyl)oxy]-14H-anthra[2,1,9-mna]thioxanthene-14-one] | 0.96 mg/mL | 175 to 177 °C | improved solubility |
| CC(C)CC(CC(C)C)Oc1cc2c3ccccc3c(=O)c3ccc4c5ccccc5sc1c4c32 [Example 2, 6-(1-Isobutyl-3-methylbutoxy)-14H-anthra[2,1,9-mna]thioxanthene-14-one] | 2.98 mg/mL | – | improved solubility |
